Measured values: paper PMC5746282, “Polypyridylruthenium(II) complexes exert anti-schistosome activity and inhibit parasite acetylcholinesterases” (PLoS Neglected Tropical Diseases, 2017)
Like-named read-outs stand apart in the source and are kept apart here.

Experiments:
[1] = system: human bile duct cell line H69; test: MTT cytotoxicity assay; format: cell-based; conditions: 0.1 μM, 72 h
[2] = biological target: acetylcholinesterase (AChE); format: biochemical, S. mansoni
[3] = biological target: acetylcholinesterase (AChE); format: biochemical, S. haematobium
[4] = system: acetylcholinesterase (AChE); format: biochemical, S. mansoni; conditions: 1 µM
[5] = system: nucleotide pyrophosphatase-phosphodiesterase 5 (SmNPP-5); format: biochemical, S. mansoni; conditions: 10 µM
[6] = system: alkaline phosphatase (AP); format: biochemical, S. mansoni; conditions: 10 µM

Row | Compound | cells killed [1] | IC50 [2] | AChE Inhibition (%) ([2]; 1 µM) | IC50 [3] | AChE Inhibition (%) ([3]; 1 µM) | AChE Inhibition (%) [4] | SmNPP-5 Inhibition (%) [5] | AP Inhibition (%) [6]
1 | COP(=O)(OC)OC=C(Cl)Cl [Dichlorvos, dichlorvos] | 100% | – | – | – | – | – | – | –
2 | [Ru(phen)2(Me2bpy)]^2+ | – | 67 ± 11.6 µM | 9.3 ± 1.8% | 90.2 ± 1.2 µM | 13.3 ± 1.8% | 66.5 ± 5.8% | 2% | 3%
